We go through 21 compounds from patent publication US20260325533A1, “CDK INHIBITOR COMPOUNDS” (ALEKSIA THERAPEUTICS, INC., priority 2023, published 2026).

Common to all, as to type: biochemical
One assay deals with CDK1/CCNB1 (Homo sapiens, UniProt P06493). Briefly: CDK1 homogeneous time-resolved fluorescence (HTRF) kinase assay. Particulars: CDK1/CCNB; x = IC50 >250 nM; read-out: CDK1/CCNB IC50 (>250 nM column). In short, it runs like this:
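CDK1/CCNB1 0.5 nM + cpd, 20 min 23 °C; add 1 mM ATP, 50 nM ULight-4E-BP1 peptide, 60 min 23 °C; stop 10 mM EDTA; 2 nM Eu-Ab, 60 min; HTRF 665 nm. 11-pt half-log, top 10 μM typical; IC50.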

Another assay addresses CDK6/CCND1 (Homo sapiens, UniProt Q00534). The assay can be described thus: CDK6 homogeneous time-resolved fluorescence (HTRF) kinase assay. The following applies: CDK6/CCND. In outline: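 Enzyme pre-incubated 20 min at 23 °C with compound, then reacted 60 min at 23 °C with 1 mM ATP and 50 nM ULight-4E-BP1 (Thr37/46) peptide; 1 nM enzyme, 1% DMSO. EDTA-stopped, Eu-anti-phospho antibody TR-FRET read (665 nm or 665/615 ratio); 11-point half-log titration from 10 μM gave IC50.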

The next assay concerns the target CDK2/CCNE1 (Homo sapiens, UniProt P24941). The assay can be described thus: CDK2 homogeneous time-resolved fluorescence (HTRF) kinase assay. The following applies: CDK2/CCNE. In short, it runs like this:
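3 nM CDK2/CCNE1 was preincubated with compound for 20 min at 23 °C in HEPES buffer (pH not stated), then reacted 60 min with 1 mM ATP and 50 nM ULight-4E-BP1 (Thr37/46) peptide. After EDTA stop, Eu-anti-phospho-4E-BP1 antibody (2 nM) was added for 60 min and TR-FRET read at 665 nm.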
Background: Time-resolved FRET reads energy transfer from a long-lived donor to a nearby acceptor.

Another assay addresses CDK4/CCND3 (Homo sapiens, UniProt P11802). The assay can be described thus: CDK4 homogeneous time-resolved fluorescence (HTRF) kinase assay. The following applies: CDK4/CCND; x = IC50 >250 nM; read-out: CDK4/CCND IC50 (>250 nM column). In outline: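 CDK4/CCND3 at 1.5 nM was preincubated with compound for 20 min at 23 °C, then reacted for 60 min with 1 mM ATP and 50 nM ULight-4E-BP1 (Thr37/46) peptide. The reaction was stopped with EDTA, and phosphorylation was read by HTRF with a Eu-anti-phospho antibody. IC50 values came from 11-point half-log titrations, typically from 10 μM.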

[1] abbreviates: x = IC50 >250 nM, read-out: CDK6/CCND IC50 (>250 nM column).
[2] abbreviates: x = IC50 25-250 nM, read-out: CDK2/CCNE IC50 (25-250 nM).
Where [3] appears, read: x = IC50 <25 nM, read-out: CDK6/CCND IC50 (<25 nM).
Setting [4] is: x = IC50 <25 nM, read-out: CDK2/CCNE IC50 (<25 nM).

Read-outs that look alike come from different tables or passages of the source.

Chain of CDK6/CCND1 (Q00534 whole entry): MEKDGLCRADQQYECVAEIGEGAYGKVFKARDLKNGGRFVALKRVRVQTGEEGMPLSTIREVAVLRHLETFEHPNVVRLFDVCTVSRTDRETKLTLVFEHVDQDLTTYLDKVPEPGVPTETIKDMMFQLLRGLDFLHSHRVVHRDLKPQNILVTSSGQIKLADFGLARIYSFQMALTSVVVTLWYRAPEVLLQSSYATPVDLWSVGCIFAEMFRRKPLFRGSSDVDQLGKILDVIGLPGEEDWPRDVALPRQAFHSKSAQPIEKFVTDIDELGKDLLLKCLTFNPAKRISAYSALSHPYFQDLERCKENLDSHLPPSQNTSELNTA
Chain of CDK6/CCND1 (P24385 whole entry partner): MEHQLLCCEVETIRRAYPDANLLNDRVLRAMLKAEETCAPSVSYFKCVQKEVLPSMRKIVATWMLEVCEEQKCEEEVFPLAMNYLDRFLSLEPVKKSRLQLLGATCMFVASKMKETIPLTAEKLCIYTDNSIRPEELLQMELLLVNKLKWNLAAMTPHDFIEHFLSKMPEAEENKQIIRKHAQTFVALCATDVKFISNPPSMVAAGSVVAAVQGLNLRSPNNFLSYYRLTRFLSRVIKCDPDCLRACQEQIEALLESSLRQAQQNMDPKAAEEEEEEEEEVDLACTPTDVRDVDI
Chain of CDK1/CCNB1 (P06493 whole entry): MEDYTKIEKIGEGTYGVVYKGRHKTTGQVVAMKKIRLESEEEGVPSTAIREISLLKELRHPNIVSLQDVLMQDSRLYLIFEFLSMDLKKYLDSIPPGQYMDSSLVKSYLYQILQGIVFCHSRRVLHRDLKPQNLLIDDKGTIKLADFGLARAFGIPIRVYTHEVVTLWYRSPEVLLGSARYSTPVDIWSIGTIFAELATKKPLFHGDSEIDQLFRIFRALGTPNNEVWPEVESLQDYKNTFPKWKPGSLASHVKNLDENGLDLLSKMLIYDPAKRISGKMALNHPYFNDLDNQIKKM
Chain of CDK1/CCNB1 (P14635 whole entry partner): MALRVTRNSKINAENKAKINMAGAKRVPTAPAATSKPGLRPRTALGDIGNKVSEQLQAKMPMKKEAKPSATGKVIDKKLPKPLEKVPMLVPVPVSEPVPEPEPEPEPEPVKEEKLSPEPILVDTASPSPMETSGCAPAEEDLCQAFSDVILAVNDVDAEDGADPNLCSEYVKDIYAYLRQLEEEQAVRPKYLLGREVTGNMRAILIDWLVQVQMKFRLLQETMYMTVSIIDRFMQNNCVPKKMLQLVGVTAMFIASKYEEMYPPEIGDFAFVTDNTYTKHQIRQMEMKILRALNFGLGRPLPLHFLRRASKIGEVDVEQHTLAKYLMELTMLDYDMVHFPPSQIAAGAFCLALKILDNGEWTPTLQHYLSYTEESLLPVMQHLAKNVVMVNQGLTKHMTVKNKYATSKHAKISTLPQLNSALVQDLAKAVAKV
Chain of CDK4/CCND3 (P11802 whole entry): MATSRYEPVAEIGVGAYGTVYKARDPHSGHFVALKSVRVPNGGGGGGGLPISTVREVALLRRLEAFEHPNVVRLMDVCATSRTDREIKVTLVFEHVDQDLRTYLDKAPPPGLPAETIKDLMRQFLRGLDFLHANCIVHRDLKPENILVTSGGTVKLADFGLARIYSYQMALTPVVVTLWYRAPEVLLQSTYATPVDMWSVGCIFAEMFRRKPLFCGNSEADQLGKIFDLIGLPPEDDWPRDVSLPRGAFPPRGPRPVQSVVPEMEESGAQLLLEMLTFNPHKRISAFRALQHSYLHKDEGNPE
Chain of CDK4/CCND3 (P30281 whole entry partner): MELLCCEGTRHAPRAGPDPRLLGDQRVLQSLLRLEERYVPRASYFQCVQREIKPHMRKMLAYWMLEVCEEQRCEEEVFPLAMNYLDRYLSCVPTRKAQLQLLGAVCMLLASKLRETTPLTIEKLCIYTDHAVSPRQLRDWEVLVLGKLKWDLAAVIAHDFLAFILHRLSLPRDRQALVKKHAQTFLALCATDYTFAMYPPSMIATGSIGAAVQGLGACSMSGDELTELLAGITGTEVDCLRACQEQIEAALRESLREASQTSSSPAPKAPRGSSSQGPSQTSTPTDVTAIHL

On to `CNc1ccncc1C#Cc1nccc2cnc(Nc3ccc(S(C)(=O)=O)cc3)cc12` [Ex 547, 5-((4-(methylamino)pyridin-3-yl)ethynyl)-N-(4-(methylsulfonyl)phenyl)-2,6-naphthyridin-3-amine], for which the IC50 at CDK1/CCNB1 was more than 250 nM; on CDK6/CCND1 (setting [1]), more than 250 nM; on CDK2/CCNE1 (x = IC50 >250 nM, read-out: CDK2/CCNE IC50 (>250 nM column)), more than 250 nM; at CDK4/CCND3 it was more than 250 nM.

For the compound `CS(=O)(=O)c1ccc(Nc2cc3c(C#Cc4ccnc5[nH]ncc45)nccc3cn2)cc1` [Ex 548, 5-((1H-pyrazolo[3,4-b]pyridin-4-yl)ethynyl)-N-(4-(methylsulfonyl)phenyl)-2,6-naphthyridin-3-amine], the IC50 at CDK1/CCNB1 was more than 250 nM; on CDK6/CCND1 (setting [1]), more than 250 nM; on CDK2/CCNE1 (setting [2]), 25 to 250 nM; at CDK4/CCND3, more than 250 nM.

Turning to `CS(=O)(=O)c1ccc(Nc2cc3c(C#Cc4cc(F)c(N)c(F)c4)nccc3cn2)cc1` [Ex 549, 5-((4-amino-3,5-difluorophenyl)ethynyl)-N-(4-(methylsulfonyl)phenyl)-2,6-naphthyridin-3-amine], the IC50 at CDK1/CCNB1 was more than 250 nM; on CDK6/CCND1 (setting [1]), more than 250 nM; at CDK2/CCNE1 (setting [2]), 25 to 250 nM; at CDK4/CCND3, more than 250 nM.

As to `CS(=O)(=O)c1ccc(Nc2cc3c(C#Cc4cnn(CC(F)(F)F)c4)nccc3cn2)cc1` [Ex 550, N-(4-(methylsulfonyl)phenyl)-5-((1-(2,2,2-trifluoroethyl)-1H-pyrazol-4-yl)ethynyl)-2,6-naphthyridin-3-amine], the IC50 is more than 250 nM at CDK1/CCNB1, more than 250 nM at CDK6/CCND1 (setting [1]), 25 to 250 nM on CDK2/CCNE1 (setting [2]) and more than 250 nM at CDK4/CCND3.

With `CS(=O)(=O)c1ccc(Nc2cc3c(C#Cc4n[nH]c5cccc(F)c45)nccc3cn2)cc1` [Ex 551, 5-((4-fluoro-1H-indazol-3-yl)ethynyl)-N-(4-(methylsulfonyl)phenyl)-2,6-naphthyridin-3-amine], the IC50 is more than 250 nM on CDK1/CCNB1, less than 25 nM on CDK6/CCND1 (setting [3]), 25 to 250 nM at CDK2/CCNE1 (setting [2]) and more than 250 nM at CDK4/CCND3.

With `CS(=O)(=O)c1ccc(Nc2cc3c(C#Cc4ncc(N)nc4Cl)nccc3cn2)cc1` [Ex 552, 5-((5-amino-3-chloropyrazin-2-yl)ethynyl)-N-(4-(methylsulfonyl)phenyl)-2,6-naphthyridin-3-amine], the IC50 on CDK1/CCNB1 was more than 250 nM; on CDK6/CCND1 (setting [3]), less than 25 nM; at CDK2/CCNE1 (setting [2]), 25 to 250 nM; on CDK4/CCND3, more than 250 nM.

On to `Cc1ccc(C#Cc2nccc3cnc(Nc4ccc(S(C)(=O)=O)cc4)cc23)c(C#N)n1` [Ex 553, 6-methyl-3-((7-((4-(methylsulfonyl)phenyl)amino)-2,6-naphthyridin-1-yl)ethynyl)picolinonitrile], for which the IC50 is more than 250 nM at CDK1/CCNB1, less than 25 nM at CDK6/CCND1 (setting [3]), 25 to 250 nM on CDK2/CCNE1 (setting [2]) and more than 250 nM at CDK4/CCND3.

On to `CS(=O)(=O)c1ccc(Nc2cc3c(C#Cc4ccc(C#N)cc4F)nccc3cn2)cc1` [Ex 554, 3-fluoro-4-((7-((4-(methylsulfonyl)phenyl)amino)-2,6-naphthyridin-1-yl)ethynyl)benzonitrile], for which the IC50 at CDK1/CCNB1 was more than 250 nM; on CDK6/CCND1 (setting [1]), more than 250 nM; at CDK2/CCNE1 (setting [2]), 25 to 250 nM; at CDK4/CCND3, more than 250 nM.

Consider `Cc1cnc(C#Cc2nccc3cnc(Nc4ccc(S(C)(=O)=O)cc4)cc23)c(C)n1` [Ex 555, 5-((3,5-dimethylpyrazin-2-yl)ethynyl)-N-(4-(methylsulfonyl)phenyl)-2,6-naphthyridin-3-amine], for which the IC50 was more than 250 nM on CDK1/CCNB1, more than 250 nM on CDK6/CCND1 (setting [1]), 25 to 250 nM at CDK2/CCNE1 (setting [2]) and more than 250 nM on CDK4/CCND3.

As to `CS(=O)(=O)c1ccc(Nc2cc3c(C#Cc4cc(F)cnc4N)nccc3cn2)cc1` [Ex 556, 5-((2-amino-5-fluoropyridin-3-yl)ethynyl)-N-(4-(methylsulfonyl)phenyl)-2,6-naphthyridin-3-amine], the IC50 on CDK1/CCNB1 was more than 250 nM; on CDK6/CCND1 (setting [1]), more than 250 nM; on CDK2/CCNE1 (setting [2]) it was 25 to 250 nM; on CDK4/CCND3, more than 250 nM.

Regarding `CS(=O)(=O)c1ccc(Nc2cc3c(C#Cc4cc(N)ncc4F)nccc3cn2)cc1` [Ex 557, 5-((2-amino-5-fluoropyridin-4-yl)ethynyl)-N-(4-(methylsulfonyl)phenyl)-2,6-naphthyridin-3-amine], the IC50 at CDK1/CCNB1 was more than 250 nM; on CDK6/CCND1 (setting [1]), more than 250 nM; on CDK2/CCNE1 (setting [4]), less than 25 nM; on CDK4/CCND3, more than 250 nM.

As for `CS(=O)(=O)c1ccc(Nc2cc3c(C#Cc4ccc(N)nc4Cl)nccc3cn2)cc1` [Ex 558, 5-((6-amino-2-chloropyridin-3-yl)ethynyl)-N-(4-(methylsulfonyl)phenyl)-2,6-naphthyridin-3-amine], the IC50 was more than 250 nM on CDK1/CCNB1, more than 250 nM on CDK6/CCND1 (setting [1]), 25 to 250 nM at CDK2/CCNE1 (setting [2]) and more than 250 nM on CDK4/CCND3.

With `CS(=O)(=O)c1ccc(Nc2cc3c(C#Cc4cc(N)n[nH]4)nccc3cn2)cc1` [Ex 559, 5-((3-amino-1H-pyrazol-5-yl)ethynyl)-N-(4-(methylsulfonyl)phenyl)-2,6-naphthyridin-3-amine], the IC50 on CDK1/CCNB1 is more than 250 nM; on CDK6/CCND1 (setting [1]), more than 250 nM; on CDK2/CCNE1 (setting [2]), 25 to 250 nM; at CDK4/CCND3, more than 250 nM.

On to `CS(=O)(=O)c1ccc(Nc2cc3c(C#Cc4ccc(F)c(O)c4)nccc3cn2)cc1` [Ex 560, 2-fluoro-5-((7-((4-(methylsulfonyl)phenyl)amino)-2,6-naphthyridin-1-yl)ethynyl)phenol], for which the IC50 is more than 250 nM on CDK1/CCNB1, more than 250 nM at CDK6/CCND1 (setting [1]), 25 to 250 nM at CDK2/CCNE1 (setting [2]) and more than 250 nM at CDK4/CCND3.

Consider `CS(=O)(=O)c1ccc(Nc2cc3c(C#Cc4n[nH]c5ncccc45)nccc3cn2)cc1` [Ex 561, 5-((1H-pyrazolo[3,4-b]pyridin-3-yl)ethynyl)-N-(4-(methylsulfonyl)phenyl)-2,6-naphthyridin-3-amine], for which the IC50 on CDK1/CCNB1 is more than 250 nM; at CDK6/CCND1 (setting [1]), more than 250 nM; at CDK2/CCNE1 (setting [2]), 25 to 250 nM; at CDK4/CCND3, more than 250 nM.

Consider `CC(C)(O)Cn1ncc2c(C#Cc3nccc4cnc(Nc5ccc(S(C)(=O)=O)cc5)cc34)cncc21` [Ex 562, 2-methyl-1-(4-((7-((4-(methylsulfonyl)phenyl)amino)-2,6-naphthyridin-1-yl)ethynyl)-1H-pyrazolo[3,4-c]pyridin-1-yl)propan-2-ol], for which the IC50 was more than 250 nM at CDK1/CCNB1, more than 250 nM on CDK6/CCND1 (setting [1]), 25 to 250 nM at CDK2/CCNE1 (setting [2]) and more than 250 nM on CDK4/CCND3.

For the compound `CS(=O)(=O)c1ccc(Nc2cc3c(C#Cc4ccc(C(F)(F)F)cc4N)nccc3cn2)cc1` [Ex 563, 5-((2-amino-4-(trifluoromethyl)phenyl)ethynyl)-N-(4-(methylsulfonyl)phenyl)-2,6-naphthyridin-3-amine], the IC50 on CDK1/CCNB1 is more than 250 nM; on CDK6/CCND1 (setting [1]) it was more than 250 nM; at CDK2/CCNE1 (setting [2]), 25 to 250 nM; at CDK4/CCND3, more than 250 nM.

On to `Cc1c(C#N)cccc1C#Cc1nccc2cnc(Nc3ccc(S(C)(=O)=O)cc3)cc12` [Ex 564, 2-methyl-3-((7-((4-(methylsulfonyl)phenyl)amino)-2,6-naphthyridin-1-yl)ethynyl)benzonitrile], for which the IC50 on CDK1/CCNB1 is more than 250 nM; on CDK6/CCND1 (setting [1]) it was more than 250 nM; at CDK2/CCNE1 (setting [2]) it was 25 to 250 nM; on CDK4/CCND3, more than 250 nM.

Consider `Cc1ncccc1C#Cc1nccc2cnc(Nc3ccc(S(C)(=O)=O)cc3)cc12` [Ex 565, 5-((2-methylpyridin-3-yl)ethynyl)-N-(4-(methylsulfonyl)phenyl)-2,6-naphthyridin-3-amine], for which the IC50 at CDK1/CCNB1 is more than 250 nM; on CDK6/CCND1 (setting [1]), more than 250 nM; at CDK2/CCNE1 (setting [2]) it was 25 to 250 nM; on CDK4/CCND3 it was more than 250 nM.

`CS(=O)(=O)c1ccc(Nc2cc3c(C#Cc4ccc(N5CCOCC5)nc4)nccc3cn2)cc1` [Ex 566, N-(4-(methylsulfonyl)phenyl)-5-((6-morpholinopyridin-3-yl)ethynyl)-2,6-naphthyridin-3-amine]: the IC50 on CDK1/CCNB1 is more than 250 nM; on CDK6/CCND1 (setting [1]), more than 250 nM; on CDK2/CCNE1 (setting [2]) it was 25 to 250 nM; at CDK4/CCND3, more than 250 nM.

For the compound `CS(=O)(=O)c1ccc(Nc2cc3c(C#Cc4ccc(C#N)cc4N)nccc3cn2)cc1` [Ex 567, 3-amino-4-((7-((4-(methylsulfonyl)phenyl)amino)-2,6-naphthyridin-1-yl)ethynyl)benzonitrile], the IC50 at CDK1/CCNB1 was more than 250 nM; on CDK6/CCND1 (setting [1]), more than 250 nM; on CDK2/CCNE1 (setting [4]), less than 25 nM; on CDK4/CCND3, more than 250 nM.
